# Literature values in patent publication US20080097335A1, “OCULAR IMPLANT DELIVERY ASSEMBLIES” (ALLERGAN, INC., priority 2006, published 2008).
# Conditions: efficacy in vivo; 25 mg dose of hydrocortisone equivalent to 1 mg dose of dexamethasone
smiles,measurement,value
C[C@]12CCC(=O)C=C1CC[C@@H]1[C@@H]2[C@@H](O)C[C@@]2(C)[C@H]1CC[C@]2(O)C(=O)CO [hydrocortisone],potency relative to dexamethasone,approximately twenty-five fold less potent than dexamethasone
